From article PMC10449632, “Structural basis for translation inhibition by the glycosylated drosocin peptide” (Nature Chemical Biology, 2023)
No end group written: not given here. *: point of attachment. αGalNAc = CC(=O)N[C@@H]1[C@@H](O)[C@@H](O)[C@@H](CO)O[C@@H]1*

Experiments:
[1] = system: E. coli SQ171 U2609C; test: Antibiotic susceptibility (growth) assay, E. coli SQ171 U2609C; type: cell-based, Escherichia coli; conditions: relative to no compound, mean of 3 replicas
Description: (§1) In addition, we also used a strain with a U2609C–A752G double mutation, which would be predicted to restore Watson–Crick base pairing, and with three hydrogen bonds could possibly make breaking the base pair harder than with the canonical two hydrogen bonds for the A–U base pair. As a control, we also tested Dro that lacks the α-D-GalNAc modification, which we predict (assuming that Dro binds analogously to Dro1) should not interact with U2609 and, therefore, not be influenced by the conformation of the U2609–A752 base pair.
(§2) Strains E. coli Keio wild-type and E. coli Keio ΔsbmA used from the Keio knockout collection (Horizon, https://horizondiscovery.com). Wild-type E. coli SQ110 (ΔrrnGADBHC(ptRNA67))[47] and SQ171 (ΔrrnGADEHBC(pKK3535, ptRNA67))[47] strains and related mutants E. coli SQ110 A2059G and E. coli SQ171 A2503G were obtained from the previous Api137 study. E. coli strains SQ171 bearing A752G, U2609C and A752G:U2609C mutations[43] and E. coli SQ171 U2609G[48] were generated previously.
(§3) The susceptibility of E. coli strains to compounds was evaluated by monitoring the bacterial growth in presence of increasing concentrations of the compound of interest. In brief, bacteria were inoculated in a total volume of 100 μl of medium contained in a well of a 96-well microplate (round bottom, with cap, sterile; Sarstedt). The medium used was either LB, as rich medium, or ATCC medium (778 Davis and Mingioli glucose minimal medium), as minimal medium. Before inoculation, bacteria were grown up to exponential phase and then inoculated into the culture mix, containing selective antibiotic if necessary, with an initial optical density at 600 nm (OD600) of 0.05. Values measured from wells containing just the medium were used as a blank. The growth in each well was monitored by measuring the OD600 every 10 minutes for a total of 20 hours at 37 °C with shaking using a plate reader (Tecan Infinite 200 PRO). The inhibition resulting from a compound’s concentration was evaluated by normalizing the OD600 at t = 12 hours (corresponding to the end of the log phase) from the treated culture to the untreated one. For each compound, the concentrations tested were 5 μM, 10 μM and 30 μM. Each single titration assay was done in triplicate with individually prepared culture mixes. For each concentration, the standard deviation was calculated, taking into account each single replica and its specific technical error from the plate reader.

[2] = system: E. coli SQ171 A752G/U2609C; test: Antibiotic susceptibility (growth) assay, E. coli SQ171 A752G/U2609C; type: cell-based, Escherichia coli; conditions: for OD600 at t = 12 h, Normalized, Average: relative to no compound, mean of 3 replicas
Description: as §1, §2, §3

[3] = system: in vitro translation, E. coli PURExpress system, firefly luciferase (Fluc) mRNA; test: In vitro translation assay with Fluc reporter; type: biochemical, Escherichia coli; conditions: Fluc mRNA, luminescence; for maximum inhibition of in vitro translation: at the highest concentration tested of 150 μM
Protocol: To investigate this, we compared the effect of increasing concentrations (0–150 μM) of modified Dro1 and Dro2 with unmodified Dro, Dro-3P and Api137 using a cell-free in vitro translation system and firefly luciferase (Fluc) mRNA as a template (Fig. 1e), as we have used previously for assessing the activity of other PrAMPs[4],[6],[8],[9],[32],[33].
The in vitro translation assay was carried out as described previously[4],[8] using the E. coli PURExpress system (New England Biolabs (NEB), E6800S). Then, 1 µl of antibiotic solution was added to 5 µl of PURExpress reaction mix. Each reaction contained 10 ng μl^−1 of mRNA encoding the Fluc, which was in vitro transcribed from a pIVEX-2.3MCS vector containing the Fluc gene using T7 polymerase (Thermo Fisher Scientific). The reaction mix was incubated for 30 minutes at 32 °C while shaking (600 r.p.m.). Reactions were stopped with 5 µl of kanamycin (50 mg ml^−1) and transferred into a 96-well microplate (Greiner Lumitrac, non-binding, white, chimney). Next, 40 µl of luciferase assay substrate solution (Promega, E1501) was added, and luminescence was measured using a plate reader (Tecan Infinite 200 PRO). Nuclease-free water was added instead of antibiotic as control. Absolute luminescence values were normalized using reactions without antibiotic. All assays were done as triplicates with individually prepared reaction mix.

[4] = system: ribosomes at the stop codon of MLIF-UAA mRNA in the presence of RF1; test: Toeprinting assay on MLIF*-mRNA with RF1; type: biochemical, Escherichia coli; conditions: for Relative stop band intensity signal: 30 μM compound, MLIF*-mRNA, plotted values; for stalling of ribosomes at the stop codon: toeprinting, 30 μM peptide, 1× or 10× RF1 (trend also with ten-fold RF2)
Protocol: To ascertain which step during protein synthesis is affected by drosocin, we performed toeprinting assays, where reverse transcription is used to monitor the position of ribosomes on a defined mRNA[34].
Toeprinting reactions were performed as described previously. In brief, reactions were performed with 6 μl of PURExpress ΔRF123 in vitro protein synthesis system (NEB) in the presence of 1× RF3 and either 1× or 10× of RF1 or RF2 (relative to the manufacturer’s recommendation). The reactions were carried out on an MLIF-UAA-toeprint template (5′-[…]-3′, ORF start codon and stop codon are underlined bold), containing T7 promoter, a ribosome binding site, an MLIF-coding ORF and the NV1* primer binding site. The template is a version of the ErmBL template with a truncated ORF and addition of a isoleucine coding codon at the third position in the ORF. The template was generated by polymerase chain reaction of two overlapping 77-nt- and 78-nt-long primers. The reactions contained 30 ng of the MLIF-UAA-toeprint DNA template. The reactions were supplemented with Api137, thiostrepton or one of the drosocin derivates as specified. The transcription–translation reactions were incubated for 15 minutes at 37 °C. The reverse transcription on the MLIF-short-UAA toeprint template was carried out using AMV RT and primer NV*1-Alexa 647 (5′-[…]-3′). The transcription–translation reactions were incubated with AMV RT and NV*1-Alexa 647 for 20 minutes at 37 °C. mRNA degradation was carried out by the addition of 1 µl of 5 M NaOH. The reactions were neutralized with 0.7 µl of 25% HCl, and nucleotide removal was performed with the QIAquick Nucleotide Removal Kit (Qiagen). The samples were dried under vacuum for 2 hours at 60 °C for subsequent gel electrophoresis. The 6% acrylamide gels were scanned on a Typhoon scanner (GE Healthcare).

| Substance | OD600 at t = 12 h, Normalized, Average ([1]; 5 μM) | OD600 at t = 12 h, Normalized, Average ([1]; 30 μM) | OD600 at t = 12 h, Normalized, Average ([2]; 5 μM) | OD600 at t = 12 h, Normalized, Average ([2]; 30 μM) | maximum inhibition of in vitro translation [3] | Relative stop band intensity signal ([4]; Fig 1f, RF1 (1X)) | Relative stop band intensity signal ([4]; Fig 1g, RF1 (10X)) | stalling of ribosomes at the stop codon [4] | tolerance of double mutant relative to the wild-type strain ([2]; U2609C–A752G double mutation vs wild-type SQ171, 30 μM) | IC50 ([3]; 0–150 μM peptide, 30 minutes at 32 °C, triplicate, read-out: half maximal inhibitory concentration (IC50), in vitro translation) |
| --- | --- | --- | --- | --- | --- | --- | --- | --- | --- | --- |
| Dro: unmodified drosocin, 19 amino acid proline-rich antimicrobial peptide lacking O-glycosylation (GKPRPYSPRPTSHPRPIRV; Drosocin; UniProt P36193 22-40, looked up) | 92% | 71% | 85% | 72% | 20% | 0.2211 | 0.4823 | good activity |  |  |
| Dro1: naturally occurring drosocin carrying monosaccharide α-D-GalNAc attached to Thr11 (GKPRPYSPRPT(αGalNAc)SHPRPIRV; UniProt P36193 22-40, looked up) | 40% | 5% | 70% | 25% | 60% | 0.3782 | 0.6764 | strongest stalling | 2.5 fold | 78 ± 13 µM |
